According to US20240208953A1, “"Cyclopenta[c]pyrrol Negative Allosteric Modulators of NR2B"” (Novartis AG, priority 2021, published 2024):
pIC50: −log10 of the molar value.

Legend:
P-glycoprotein (P-gp) = P-glycoprotein (P-gp) (Homo sapiens (Human), UniProt P08183); test: MDCK-MDR1 permeability / efflux assay; type: in vitro ADME; settings: for efflux ratio at 120 min, 10 μM: dog, MDCK-MDR1, pH 7.4, efflux ratio, read-out: MDCK-MDR1 ER
Experimental: Example 4. Experimental Measurement of Efflux with MDCK-MDR1 Protocol
Cell Culture. MDCK-MDR1 cells were cultured at 37° C. under a 5% CO2 atmosphere, at 95% relative humidity in DMEM containing 10% FBS, penicillin-streptomycin (100 μg/mL), and 2 mM Ala-Gln. Cells were passaged every 3-4 days. For assay purposes, cells were seeded at a density of approximately 265,000 cells/cm^2 of a 96-well Transwell plate (Corning Life Sciences, Acton, MA) and cultured in the same media noted above for a period of 4 days.
Assay. The determination of the apparent permeability (Papp) was performed in both the A→B (apical to basal) and B→A (basal to apical) directions where each compound was assayed in triplicate. The zwitterion bestatin, a poorly permeably compound, was used as marker of monolayer integrity. To initiate the assay, media was aspirated, and the cells and basal chambers were washed three times with Hank's Balanced Salt Solution (HBSS) containing 10 mM HEPES (pH 7.4). Compound test solutions were prepared in triplicate in HBSS containing 10 mM HEPES (pH 7.4) and 0.02% bovine serum albumin (BSA) to a final concentration of 10 μM and centrifuged for 2 min at 4000×g, then applied to the donor compartment at time zero. Additionally, at time zero, a 37° C. solution without test articles (HBSS+10 mM HEPES (pH 7.4) plus 0.02% BSA) was added to the receiver chamber of the Transwell plate. A time zero sample of the donor solution was also sampled for further analysis. The assay was conducted for a period of 120 min at 37° C. without shaking. At the time of assay termination, samples were taken from each donor compartment, and each acceptor compartment of the Transwell plate. To each of the 0 and 120 min samples was added an internal standard solution containing glyburide in water:acetonitrile, 50:50 (v:v). Concentration curves were prepared using a Labcyte Echo in the same matrix noted above. Samples and concentration curve samples were centrifuged for 10 min at 4000×g and subsequently analyzed by mass spectroscopy.
Mass Spectroscopy. Assay samples were loaded onto a RapidFire C4 cartridge by means of a RapidFire autosampler (Agilent, Santa Clara, CA). […] Mass spectroscopy was performed using an AB Sciex AP15500 (Sciex, Frammingham, MA) equipped with a turbo ion spray source. The analyte concentration was calculated from the chromatographic peak area ratio of analyte to internal standard (glibenclamide, m/z 494→169), using Multiquant software V3.0 (Sciex, Framingham, MA).
Calculations. Papp values were determined as
Percent recovery values were determined as:
where VA is the volume of the acceptor (mL), S is the surface area of the membrane, D0 is the donor solution concentration at t=0, D120 is the donor solution concentration at t=120, A120 is the acceptor solution concentration at t=120, and t=time (seconds).
The suitability of a compound for oral dosing and/or for use as a CNS therapeutic is usually conducted by MDCK-MDR1 permeability assay to investigate its drug efflux potential mediated by P-glycoprotein (P-gp). MDCK-MDR1 permeability has been used as a predictor of blood brain barrier permeability in terms of efflux ratio (ER).

NR2B = NR2B (Rattus norvegicus (Rat), UniProt Q00960); test: NR2B rat cortical neuron calcium influx assay; type: cell-based; settings: rat cortical neurons, glutamate and glycine stimulated calcium influx
From the text: Example 1: NR2B Rat Cortical Neuron Calcium Influx Assay Protocol
Embryonic day 18 timed pregnant Sprague Dawley rats were euthanized according to Institutional Animal Care and Use Committee (IACUC) protocol. After cutting medially through the skin and exposing the uterus and embryos, fetuses were removed and placed in cold Hibernate medium. Each embryo's brain was extracted and cerebral cortices were isolated by removing the midbrain and meninges. The dissected cortices were then dissociated into the neurons using papain dissociation system (Worthington Biochemical Corporation) according the manufacturer's protocol.
Dissociated neurons were counted and plated into 384-well poly-D-lysine coated plates (Corning® BioCoat™) at a density of 20,000 cells/well in 30 μL of Neurobasal/B27 complete medium. Neurons were cultured at 37° C. for 2 days. On the assay day, medium was removed and cells were incubated with 20 μL/well of calcium dye (Calcium 6 Assay Kit, Molecular Devices) suspended in HBSS with 1.8 mM Ca^2+ (Ca-HBSS) according to the manufacturer's instruction.
Compounds of interest from 10 mM stock were serially diluted into 3× of desired concentrations in 1.8 mM Ca-HBSS, and 10 μL were added to the wells. Compound and the neurons were incubated at 37° C. for 2 hours in the dark.
On FDSS7000EX (Hamamatsu Photonics), a fluorescence measuring instrument, 10 μL of 4× ligand solution containing glutamate and glycine made in 1.8 mM Ca^2+-HBSS were added to each well. The fluorescent signals were collected before and after the addition of ligands for a total of 2 minutes. The data were converted to a ratio of the peak fluorescence to the fluorescence at the beginning of the measurement.
Each data point was measured in duplicates. Dose response curves were used to identify IC50 and maximal inhibition values. IC50 represents the concentration in μM of compound at which there is a half-maximal compound effect. Maximal inhibition of a compound is expressed as a percent of the highest inhibition of activity over a no compound control.

Chain of NR2B (Q00960 27-1482, other chains not shown): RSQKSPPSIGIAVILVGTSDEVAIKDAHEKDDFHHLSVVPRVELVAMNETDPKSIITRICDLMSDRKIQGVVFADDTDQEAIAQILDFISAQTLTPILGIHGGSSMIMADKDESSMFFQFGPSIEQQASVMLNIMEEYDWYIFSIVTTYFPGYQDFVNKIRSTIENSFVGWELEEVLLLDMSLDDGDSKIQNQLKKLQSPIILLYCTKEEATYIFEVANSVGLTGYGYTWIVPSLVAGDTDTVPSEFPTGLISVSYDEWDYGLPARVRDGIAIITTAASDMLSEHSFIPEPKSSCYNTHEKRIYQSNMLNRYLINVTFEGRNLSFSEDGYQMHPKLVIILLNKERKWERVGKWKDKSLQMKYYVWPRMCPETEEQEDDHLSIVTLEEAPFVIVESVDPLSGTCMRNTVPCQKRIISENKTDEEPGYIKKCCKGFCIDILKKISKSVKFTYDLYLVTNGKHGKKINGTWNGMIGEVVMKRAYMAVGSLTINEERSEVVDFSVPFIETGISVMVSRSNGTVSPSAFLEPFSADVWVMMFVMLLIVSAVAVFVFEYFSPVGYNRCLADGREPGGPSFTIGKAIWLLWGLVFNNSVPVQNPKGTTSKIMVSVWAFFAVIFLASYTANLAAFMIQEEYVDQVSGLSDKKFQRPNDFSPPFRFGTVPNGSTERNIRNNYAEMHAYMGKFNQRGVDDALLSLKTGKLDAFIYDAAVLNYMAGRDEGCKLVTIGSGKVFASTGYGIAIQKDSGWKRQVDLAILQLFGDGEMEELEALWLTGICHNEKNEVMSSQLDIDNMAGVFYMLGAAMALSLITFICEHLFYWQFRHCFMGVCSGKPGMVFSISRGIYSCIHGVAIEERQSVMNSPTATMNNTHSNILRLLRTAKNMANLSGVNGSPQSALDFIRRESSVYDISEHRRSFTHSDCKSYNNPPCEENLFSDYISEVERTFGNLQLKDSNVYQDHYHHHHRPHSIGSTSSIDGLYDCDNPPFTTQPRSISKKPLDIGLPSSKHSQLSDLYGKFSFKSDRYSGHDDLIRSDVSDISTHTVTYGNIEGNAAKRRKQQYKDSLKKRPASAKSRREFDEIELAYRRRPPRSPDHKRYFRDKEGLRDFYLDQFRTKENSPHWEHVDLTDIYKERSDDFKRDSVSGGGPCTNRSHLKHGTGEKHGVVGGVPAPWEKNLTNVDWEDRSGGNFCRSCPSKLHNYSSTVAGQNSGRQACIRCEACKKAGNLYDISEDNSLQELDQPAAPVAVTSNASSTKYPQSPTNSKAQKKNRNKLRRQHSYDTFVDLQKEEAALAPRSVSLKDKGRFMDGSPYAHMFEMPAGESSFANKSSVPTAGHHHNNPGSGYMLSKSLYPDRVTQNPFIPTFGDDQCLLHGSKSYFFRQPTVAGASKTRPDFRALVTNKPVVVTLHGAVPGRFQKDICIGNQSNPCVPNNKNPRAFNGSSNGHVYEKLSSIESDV
Chain of P-glycoprotein (P-gp) (P08183 whole entry): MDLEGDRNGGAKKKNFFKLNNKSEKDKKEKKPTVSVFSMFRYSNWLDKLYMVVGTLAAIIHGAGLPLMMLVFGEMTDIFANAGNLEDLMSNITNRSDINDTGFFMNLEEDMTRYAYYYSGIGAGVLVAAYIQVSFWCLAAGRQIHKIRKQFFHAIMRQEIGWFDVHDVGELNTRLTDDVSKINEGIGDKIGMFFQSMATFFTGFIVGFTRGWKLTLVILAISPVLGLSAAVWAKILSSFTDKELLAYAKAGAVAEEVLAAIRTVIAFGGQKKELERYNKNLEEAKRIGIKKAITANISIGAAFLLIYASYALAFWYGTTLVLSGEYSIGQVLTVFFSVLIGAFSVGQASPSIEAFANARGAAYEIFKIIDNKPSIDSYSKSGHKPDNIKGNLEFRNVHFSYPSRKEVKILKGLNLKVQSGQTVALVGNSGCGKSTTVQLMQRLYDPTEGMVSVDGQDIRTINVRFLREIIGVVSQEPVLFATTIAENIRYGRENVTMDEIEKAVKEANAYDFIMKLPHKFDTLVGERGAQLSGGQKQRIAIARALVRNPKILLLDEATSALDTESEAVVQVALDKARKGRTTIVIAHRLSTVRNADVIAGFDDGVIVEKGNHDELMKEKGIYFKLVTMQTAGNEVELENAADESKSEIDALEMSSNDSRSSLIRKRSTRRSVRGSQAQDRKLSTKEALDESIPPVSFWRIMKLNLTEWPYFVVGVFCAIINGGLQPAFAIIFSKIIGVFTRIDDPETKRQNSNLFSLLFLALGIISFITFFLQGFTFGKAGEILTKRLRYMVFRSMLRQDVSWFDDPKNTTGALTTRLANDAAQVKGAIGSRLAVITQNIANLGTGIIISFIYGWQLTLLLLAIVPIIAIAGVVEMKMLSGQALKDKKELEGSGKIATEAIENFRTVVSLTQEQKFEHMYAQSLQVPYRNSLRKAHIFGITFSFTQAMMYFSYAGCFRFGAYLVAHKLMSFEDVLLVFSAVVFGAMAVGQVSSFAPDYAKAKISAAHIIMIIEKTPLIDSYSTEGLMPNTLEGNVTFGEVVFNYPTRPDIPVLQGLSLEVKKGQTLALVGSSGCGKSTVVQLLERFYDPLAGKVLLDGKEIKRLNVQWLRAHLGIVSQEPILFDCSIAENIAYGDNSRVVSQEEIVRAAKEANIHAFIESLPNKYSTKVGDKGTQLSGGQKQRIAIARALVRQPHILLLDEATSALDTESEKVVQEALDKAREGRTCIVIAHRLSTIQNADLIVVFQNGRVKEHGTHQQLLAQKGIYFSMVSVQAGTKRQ

SMILES	efflux ratio at 120 min, 10 μM (P-glycoprotein (P-gp))	pIC50 (NR2B)	MDCK-MDR1 ER (P-glycoprotein (P-gp); efflux ratio, 10 μM, 120 min)
O=C1CCc2cc([C@@H](O)CN3C[C@@H]4C[C@@H](Oc5ccc(F)cc5)C[C@]4(O)C3)ccc2N1 (single isomer, unassigned) [Example 22C]	1.43	8.85	–
O=C1CCc2cc([C@H](O)CN3C[C@@H]4C[C@@H](Oc5c(F)cccc5F)C[C@]4(O)C3)ccc2N1 (single isomer, unassigned) [Example 27D]	2.05	8.85	–
O=C1Nc2c(F)cc([C@H](O)CN3C[C@H]4C[C@H](Oc5ccccc5F)C[C@@]4(O)C3)cc2CO1 (single isomer, unassigned) [Example 35B]	2.04	8.89	–
O=C1CCc2cc([C@H](O)CN3C[C@H]4C[C@H](Oc5ccccc5)C[C@@]4(O)C3)c(F)cc2N1 (single isomer, unassigned) [Example 10B]	2.49	9.25	–
O=c1ccc2cc([C@H](O)CN3C[C@H]4C[C@H](Oc5ccccc5)C[C@@]4(O)C3)ccc2[nH]1 (single isomer, unassigned) [Example 8B]	3.46	9.24	–
O=C1Cc2cc([C@@H](O)CN3C[C@@H]4C[C@@H](Oc5ccccc5)[C@@H](O)[C@]4(O)C3)ccc2N1 [Example 3A, 5-((R)-2-((3aR,4R,5R,6aS)-3a,4-dihydroxy-5-phenoxyhexahydrocyclopenta[c]pyrrol-2(1H)-yl)-1-hydroxyethyl)indolin-2-one]	7.49	5.26	–
O=C1CCc2cc([C@@H](O)CN3C[C@@H]4C[C@@H](Oc5cccc(F)c5)C[C@]4(O)C3)ccc2N1 (single isomer, unassigned) [Example 23C]	3.75	8.85	–
O=C1Nc2cc(F)c([C@H](O)CN3C[C@H]4C[C@H](Oc5ccccc5)C[C@@]4(O)C3)cc2CO1 (single isomer, unassigned) [Example 36B]	2.44	8.82	–
O=C1CCCc2cc([C@@H](O)CN3C[C@H]4C[C@H](Oc5ccccc5)C[C@@]4(O)C3)cc(F)c2N1 (single isomer, unassigned) [Example 30A]	1.18	6.55	–
O=C1Nc2ccc([C@@H](O)CN3C[C@H]4C[C@H](Oc5ccccc5F)C[C@@]4(O)C3)cc2CCO1 (single isomer, unassigned) [Example 12A]	2.81	9.52	–
O=C1CCc2cc([C@H](O)CN3C[C@@H]4C[C@@H](Oc5cccc(F)c5)C[C@]4(O)C3)ccc2N1 (single isomer, unassigned) [Example 23D]	3.28	8.89	–
O=C1CCc2cc([C@H](O)CN3C[C@@H]4C[C@@H](Oc5ccccc5)[C@@H](O)[C@]4(O)C3)ccc2N1 [Example 4D, 6-((S)-2-((3aR,4R,5R,6aS)-3a,4-dihydroxy-5-phenoxyhexahydrocyclopenta[c]pyrrol-2(1H)-yl)-1-hydroxyethyl)-3,4-dihydroquinolin-2(1H)-one]	6.87	6.60	–
O=C1CCc2c(ccc([C@@H](O)CN3C[C@H]4C[C@H](Oc5ccccc5)C[C@@]4(O)C3)c2F)N1 (single isomer, unassigned) [Example 9A]	1.06	8.57	–
O=C1Nc2ccc([C@@H](O)CN3C[C@H]4C[C@H](Oc5ccccc5)C[C@@]4(O)C3)cc2CS1 (single isomer, unassigned) [Example 14A]	1.51	10.96	–
O=C1Nc2c(F)cc([C@@H](O)CN3C[C@H]4C[C@H](Oc5ccccc5)C[C@@]4(O)C3)c(F)c2CO1 (single isomer, unassigned) [Example 37A]	1.15	7.48	–
O=C1Cc2cc([C@H](O)CN3C[C@H]4C[C@H](Oc5ccccc5)C[C@@]4(O)C3)ccc2N1 [Example 2B, 5-((S)-1-hydroxy-2-((3aS,5S,6aR)-3a-hydroxy-5-phenoxyhexahydrocyclopenta[c]pyrrol-2(1H)-yl)ethyl)indolin-2-one]	3.54	7.20	–
O=C1Cc2cc([C@H](O)CN3C[C@@H]4C[C@@H](Oc5ccccc5)[C@@H](O)[C@]4(O)C3)ccc2N1 [Example 3B]	–	< 5.00	6.36
O=C1CCc2cc([C@@H](O)CN3C[C@@H]4C[C@@H](Oc5ccccc5)[C@@H](O)[C@]4(O)C3)ccc2N1 [Example 4C, 6-((R)-2-((3aR,4R,5R,6aS)-3a,4-dihydroxy-5-phenoxyhexahydrocyclopenta[c]pyrrol-2(1H)-yl)-1-hydroxyethyl)-3,4-dihydroquinolin-2(1H)-one]	6.75	5.52	–
O=C1Nc2ccc([C@@H](O)CN3C[C@H]4C[C@H](Oc5ccccc5)C[C@@]4(O)C3)c(F)c2CO1 (single isomer, unassigned) [Example 34A]	3.81	8.57	–
O=C1CCc2cc([C@@H](O)CN3C[C@H]4C[C@H](Oc5ccccc5)[C@H](O)[C@@]4(O)C3)ccc2N1 [Example 4A, 6-((R)-2-((3aS,4S,5S,6aR)-3a,4-dihydroxy-5-phenoxyhexahydrocyclopenta[c]pyrrol-2(1H)-yl)-1-hydroxyethyl)-3,4-dihydroquinolin-2(1H)-one]	6.99	7.89	–
O=C1CCc2cc([C@@H](O)CN3C[C@H]4C[C@H](Oc5ccccc5F)C[C@@]4(O)C3)cc(F)c2N1 (single isomer, unassigned) [Example 6A]	1.01	6.28	–
